Experimental data as given in US6448399B1, “Fused heteroaromatic glucokinase activators” (Hoffmann-La Roche Inc., priority 2000, dated 2002).

Tested on: C57BL/6J mice
Experiment: Glucokinase activator in vivo screen (blood glucose after oral dosing)
Settings: administered orally, 50 mg/kg, active = significant (p≦0.05) decrease in blood glucose vs vehicle at two consecutive time points
Experimental: Glucokinase Activator in vivo Screen Protocol
C57BL/6J mice are orally dosed via gavage with Glucokinase (GK) activator at 50 mg/kg body weight following a two hour fasting period. Blood glucose determinations are made five times during the six hour post-dose study period.
Mice (n=6) are weighed and fasted for a two hour period prior to oral treatment. GK activators are formulated at 6.76 mg/ml in Gelucire vehicle (Ethanol:Gelucire44/14:PEG400q.s. 4:66:30 v/w/v. Mice are dosed orally with 7.5 μL formulation per gram of body weight to equal a 50 mg/kg dose. Immediately prior to dosing, a pre dose (time zero) blood glucose reading is acquired by snipping off a small portion of the animals tail (˜1 mm) and collecting 15 μL blood into a heparinized capillary tube for analysis. Following GK activator administration, additional blood glucose readings are taken at 1, 2, 4, and 6 hours post dose from the same tail wound. Results are interpreted by comparing the mean blood glucose values of six vehicle treated mice with six GK activator treated mice over the six hour study duration.

SMILES	glucokinase activator in vivo activity
CS(=O)(=O)c1ccc(C(CC2CCCC2)C(=O)Nc2ccc3ccccc3n2)cc1Cl (stereo not drawn) [Example 22, 2-(3-Chloro-4-methanesulfonyl-phenyl)-3-cyclopentyl-N-quinolin-2-yl-propionamide]	excellent glucokinase activator in vivo activity
CS(=O)(=O)c1ccc([C@@H](CC2CCCC2)C(=O)Nc2nc3ccccc3s2)cc1Cl [Example 19, N-Benzothiazol-2-yl-2(R)-(3-chloro-4-methanesulfonyl-phenyl)-3-cyclopentyl-propionamide]	excellent glucokinase activator in vivo activity
CS(=O)(=O)c1ccc(C(CC2CCCC2)C(=O)Nc2nc3ccccc3[nH]2)cc1Cl (stereo not drawn) [Example 20, N-(1H-Benzoimidazol-2-yl)-2-(3-chloro-4-methanesulfonyl-phenyl)-3-cyclopentyl-propionamide]	excellent glucokinase activator in vivo activity
